Our source for the IC50 values is ChEMBL document CHEMBL3826955, “Steric structure-activity relationship of cyproheptadine derivatives as inhibitors of histone methyltransferase Set7/9” (Bioorg Med Chem, 2016).

This assay addresses T1, Histone-lysine N-methyltransferase SETD7 (Homo sapiens, UniProt Q8WTS6).
T1 sequence (Q8WTS6 whole entry): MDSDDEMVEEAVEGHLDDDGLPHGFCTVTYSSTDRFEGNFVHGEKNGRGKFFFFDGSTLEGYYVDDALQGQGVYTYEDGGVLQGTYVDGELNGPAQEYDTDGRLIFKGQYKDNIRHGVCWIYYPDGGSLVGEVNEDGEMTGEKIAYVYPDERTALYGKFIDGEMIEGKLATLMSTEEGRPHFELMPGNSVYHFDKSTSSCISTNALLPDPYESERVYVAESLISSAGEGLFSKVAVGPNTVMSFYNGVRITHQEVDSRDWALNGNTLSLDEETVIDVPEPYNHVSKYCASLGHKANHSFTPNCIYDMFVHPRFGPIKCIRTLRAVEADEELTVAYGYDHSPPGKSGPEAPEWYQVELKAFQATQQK
As to the kind of experiment: Inhibition of recombinant SET7/9 (unknown origin) using biotinylated histone H3-derived peptide/SAM as substrate after 60 mins by AlphaLISA assay.
The term IC50 denotes the concentration that inhibits the measured activity by half. On to `CN1CCC(OC2c3ccccc3Oc3ccccc32)CC1`, for which the half-inhibitory concentration (IC50) was above 100 µM.
Then `CN1CCC(OC2c3ccccc3Sc3ccccc32)CC1`, with above 100 µM; and `CN1CCN(C2c3ccccc3Oc3ccccc32)CC1`, with above 100 µM.
Regarding `CN1CCC(OC2c3ccccc3C=Cc3ccccc32)CC1`, the IC50 was above 100 µM.
Next, `CN1CCC(=C2c3ccccc3C=Cc3ccccc32)CC1` [CYPROHEPTADINE]: 3.4 µM; `CN1CCC(=C2c3ccccc3Sc3ccccc32)CC1` [PIMETHIXENE]: 4.3 µM; `CN1CCN(C2c3ccccc3C=Cc3ccccc32)CC1`: above 100 µM.
In the case of `CN1CCN(C2c3ccccc3Sc3ccccc32)CC1`, the concentration for half-maximal inhibition (IC50) was above 100 µM.
